Data published in paper PMC11939361, “diAcCA, a Pro-Drug for Carnosic Acid That Activates the Nrf2 Transcriptional Pathway, Shows Efficacy in the 5xFAD Transgenic Mouse Model of Alzheimer’s Disease” (Antioxidants, 2025).
Values joined by “and” are separate entries in the source; they are usually repeats but may differ in a detail not shown here. Equal entries are not always repeated. “Also recorded” adds a separate entry of the source. Where two headings read alike, the source gives them in different places.

Legend:
[1] = cited from earlier work
[2] = system: hiPSC-derived microglia (hiMG); test: hiMG transplanted into humanized mouse brain, inflammatory markers; type: in vivo, human
Description: The next day, immunostaining was performed on brain sections after 3 washes in PBS and incubation in the appropriate secondary antibody solution on a shaker for 2 h at room temperature. Secondary antibodies included Alexa 488 (A11008, 1:500, goat anti-rabbit, Life Technologies, Carlsbad, CA, USA) and Alexa 555 (A21424, 1:500, goat anti-mouse, Life Technologies). The sections were again washed with PBS 3 times, mounted on Superfrost plus slides (12-550-15, Fisher Scientific, Waltham, MA, USA) and dried at room temperature. […] For each brain, 3–6 images were acquired for each individual marker using a confocal fluorescence microscope (Nikon Eclipse Ti2) (Figure 1, Figure 2 and Figure 3, Supplementary Figure S1). Post image processing, quantification was performed using Fiji ImageJ (1.54f). For the Iba1-stained slides, a mask was made of cells co-labeled for HuNu and Iba1, and then caspase 1 staining was measured. […] For quantification, NeuN, Synapsin I, and GFAP staining were compared between groups by mean fluorescence intensity (MFI), Iba1 and caspase-1 staining was compared by integrated density (ID), Aβ and pTau staining were compared by % area of plaques/aggregates, as previously described. […]

[3] = in vivo; conditions: for AUC(0-inf): AUCINF_obs; for AUC(0-t): AUClast
Description: (§1) We tested both CA and diAcCA compounds by oral gavage/PO at 10 mg/kg. Analysis was performed by LC-MS in the Scripps Florida Drug Development Core (Jupiter, FL, USA). The compounds were formulated in olive oil. CA went into the oil with minimal stirring, but diAcCA required longer stirring. Blood was collected in hematocrit tubes and centrifuged. […] Drug is therefore likely absorbed via enterocyte passage and through chylomicron absorbance, complicating the early time points of the PK curves.
(§2) Therefore, we decided to pre-weigh the CA into a vial and, in the vivarium, rapidly dissolve the compound in DMSO and then add Tween80/saline. The compound was dosed within five minutes of being dissolved, and the final concentrations were 5% DMSO and 95% of a 5% Tween80 solution in saline. […] Oral clearance calculations assume 100% bioavailability.
(§3) We also determined the stability and bioavailability of diAcCA compared to CA. For this purpose, individual mice were administered CA or diAcCA IV or via oral gavage/PO. For CA, the doses were 3 mg/kg for the IV route and 10 mg/kg for oral gavage/PO, and for diAcCA 10 mg/kg by oral gavage/PO.

[4] = in vivo; for AUC%Extrap: mouse
Description: as §1, §2, §3

[5] = cited from earlier work; remark: listed apart in the source
[6] = Shelf life / stability of the compound over time; type: physicochemical; conditions: storage (CA: even if kept in the dark and cold)
[7] = male, C57Bl/6, mouse, po, 10 mg/kg
[8] = mouse, po, 10 mg/kg, Plasma concentration of carnosic acid

Compound: CC(C)c1cc2c(c(O)c1O)[C@@]1(C(=O)O)CCCC(C)(C)[C@@H]1CC2 [CA, carnosic acid]
- brain levels as share of the plasma level at peak values ([1]; PO and IV routes): approximately 10%
- CA concentration in the brain, which is neuroprotective [1]: 1 to 2 µM
- CA plasma concentration that produces the neuroprotective brain level [1]: 10 to 20 µM
- inflammatory response (Iba1 and caspase-1 expression) of transplanted hiMG ([2]; hiMG activated by α-synuclein/Aβ aggregates with or without cognate antibodies, pretreated with CA (2 µM), 2 weeks after transplantation): significantly prevented this inflammatory reaction; also recorded: prevented this effect
- cleaved/activated caspase-1 integrated density (ID) ([2]; response to α-synuclein/Aβ aggregates in the presence of CA (2 µM), p = 0.0307): significant decrease
- AUC(0-inf) ([3]; male, C57Bl/6, mouse, iv, 3 mg/kg): 15000 ng·h/mL
- clearance ([3]; male, C57Bl/6, mouse, iv, 3 mg/kg, Cl_obs): 3.3 mL/min/kg
- MRT inf ([3]; male, C57Bl/6, mouse, iv, 3 mg/kg, MRTINF_obs): 5.46 h
- half-life ([3]; male, C57Bl/6, mouse, iv, 3 mg/kg, T1/2): 13 h
- AUC(0-inf) [3, 7]: 10700 ng·h/mL
- bioavailability ([3]; male, C57Bl/6, mouse, po, 10 mg/kg, F%): 16%
- half-life ([3]; male, C57Bl/6, mouse, po, 10 mg/kg, T1/2): 19.9 h
- AUC(0-inf) ([3]; mouse, iv, 3 mg/kg): 20100 ng·h/mL
- AUC(0-t) ([3]; mouse, iv, 3 mg/kg): 59.5 µM·h
- half-life ([3]; mouse, iv, 3 mg/kg, t1/2): 11.9 h
- Tmax ([3]; mouse, iv, 3 mg/kg): 0.14 h
- Cmax ([3]; mouse, iv, 5 mg/kg, mean Cmax of CA in plasma): 98.5 µM
- half-life ([3]; mouse, iv, average half-life): 11.9 h
- half-life ([3]; mouse, iv, half-life): ~12 h
- AUC(0-inf) ([3]; mouse, po, 10 mg/kg): 9710 ng·h/mL
- AUC(0-t) ([3]; mouse, po, 10 mg/kg): 28 µM·h
- Cmax ([3]; mouse, po, 10 mg/kg, Cmax of CA in plasma): 4.45 µM
- concentration at 480 min [3, 8]: 1 µM and 332 ng/mL
- concentration at 4320 min [3, 8]: 64.4 nM and 21.4 ng/mL
- half-life ([3]; mouse, po, 10 mg/kg, average half-life): 16.3 h
- Cmax ([3]; mouse, po, 10 mg/kg, mean Cmax of CA): 4.45 µM
- half-life ([3]; mouse, po, 10 mg/kg, t1/2): 16.3 h
- Tmax ([3]; mouse, po, 10 mg/kg): 1.5 h
- Calculated Concentration of carnosic acid in plasma ([4]; C57Bl/6, mouse, po, 6 h): 618 ng/mL
- CL*F [4, 7]: 2.7
- AUC%Extrap ([4]; iv, 3 mg/kg): 1.77%
- AUC%Extrap ([4]; po, 10 mg/kg): 4.13%
- LD50 [5]: 7100 mg/kg
- shelf life / stability over time [6]: shelf life of only a couple of months
